The record followed here is ChEMBL document CHEMBL1201862, “PubChem BioAssay data set” (2004).

Assay [1] addresses Cytochrome P450 3A4 (Homo sapiens, UniProt P08684).
For assay [2], the target named is Cytochrome P450 2C9 (Homo sapiens, UniProt P11712).
The nature of assay [3]: Luminescence Cell-Based Dose Response HTS to Identify Activators of Luciferase Translation or Activity in H4 […] Cells. [Related pubchem assays: 1829 (Project Summary), 1814 (Primary HTS)]. The format is functional.
Assay [4] has as its system H4. Put plainly: Luminescence Cell-Based Dose Response HTS to Identify Activators of 5'UTR Stem-Loop Driven Prion Protein mRNA Translation in H4 Neuroglioblastoma Cells. [Related pubchem assays: 1829 (Project Summary), 1814 (Primary HTS)]. The format is functional. Conditions: Homo sapiens.
Assay [5] concerns the target T1, Corticotropin-releasing factor receptor 2/Corticotropin-releasing factor-binding protein (Homo sapiens, UniProt P24387+Q13324).
T1 sequence (Q13324 whole entry): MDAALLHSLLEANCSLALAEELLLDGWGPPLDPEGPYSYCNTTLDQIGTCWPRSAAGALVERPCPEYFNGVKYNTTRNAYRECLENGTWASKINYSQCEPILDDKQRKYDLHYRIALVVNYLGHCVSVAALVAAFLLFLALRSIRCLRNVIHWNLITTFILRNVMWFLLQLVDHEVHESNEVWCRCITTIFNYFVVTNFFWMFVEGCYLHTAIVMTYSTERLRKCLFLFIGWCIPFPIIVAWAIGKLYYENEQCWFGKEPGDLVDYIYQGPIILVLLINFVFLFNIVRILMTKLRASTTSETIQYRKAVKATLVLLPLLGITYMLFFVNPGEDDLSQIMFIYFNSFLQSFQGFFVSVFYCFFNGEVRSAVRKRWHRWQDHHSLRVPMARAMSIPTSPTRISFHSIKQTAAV
T1 sequence (P24387 whole entry): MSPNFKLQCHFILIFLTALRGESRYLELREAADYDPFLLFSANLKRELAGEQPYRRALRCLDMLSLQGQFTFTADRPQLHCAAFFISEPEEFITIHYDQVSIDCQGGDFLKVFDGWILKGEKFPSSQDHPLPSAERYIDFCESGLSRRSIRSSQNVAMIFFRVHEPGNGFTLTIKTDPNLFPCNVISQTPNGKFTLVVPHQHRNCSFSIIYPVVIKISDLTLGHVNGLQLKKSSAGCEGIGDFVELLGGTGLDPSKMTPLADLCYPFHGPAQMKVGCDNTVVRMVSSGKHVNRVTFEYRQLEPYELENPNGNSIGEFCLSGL
Put plainly: activators of CRF receptor 2 with binding protein – uHTS hits, confirmation (AID 602473). The format is functional. Conditions: read-out: EC50_Mean.

In assay [6] the target is T2, Cytochrome P450 1A2 (Homo sapiens, UniProt P05177).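 Also: PubChem cytochrome P450 panel assay, CYP1A2 panel member.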
T2 sequence (P05177 whole entry): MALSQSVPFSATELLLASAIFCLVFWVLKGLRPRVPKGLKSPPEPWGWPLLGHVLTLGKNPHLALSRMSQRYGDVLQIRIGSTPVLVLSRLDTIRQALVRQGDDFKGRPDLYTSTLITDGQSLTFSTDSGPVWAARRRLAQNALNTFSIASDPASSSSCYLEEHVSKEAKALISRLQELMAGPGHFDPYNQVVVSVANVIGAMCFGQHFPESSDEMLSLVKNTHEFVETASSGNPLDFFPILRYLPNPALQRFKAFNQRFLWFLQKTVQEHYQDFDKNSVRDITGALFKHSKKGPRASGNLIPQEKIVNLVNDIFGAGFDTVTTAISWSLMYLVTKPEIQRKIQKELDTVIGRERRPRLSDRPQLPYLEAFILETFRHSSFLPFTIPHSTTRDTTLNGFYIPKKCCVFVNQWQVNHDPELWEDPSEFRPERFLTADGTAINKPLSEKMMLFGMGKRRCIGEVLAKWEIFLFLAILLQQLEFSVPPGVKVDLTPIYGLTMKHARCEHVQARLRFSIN

Assay [7] can be described thus: cells. The class given is functional.
Assay [8] can be described thus: inhibitors of intracellular T. cruzi replication, confirmation, NIH3T3 host cells, beta-gal luminescence (AID 2044).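 Also: intracellular parasites grown in NIH/3T3 mouse fibroblasts as host cells; luminescent beta-galactosidase reporter signal from transgenic T. cruzi replicating inside host cells; inhibitors lower the luminescence signal.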 The class given is functional, cell-based.
A short description of assay [9]: cytotoxicity toward NIH3T3 fibroblasts, dose response, counter-screen, cell-based, ATP luminescence, mouse fibroblasts (AID 2010).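 Also: cells exposed to compound for about 90 hours before reading.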 The class given is functional. (Counterscreens check selectivity or assay interference.)

Each structure is given as a SMILES string. Activity calls are given as the source filed them.

Cytochrome P450 2C9, sequence (P11712 whole entry): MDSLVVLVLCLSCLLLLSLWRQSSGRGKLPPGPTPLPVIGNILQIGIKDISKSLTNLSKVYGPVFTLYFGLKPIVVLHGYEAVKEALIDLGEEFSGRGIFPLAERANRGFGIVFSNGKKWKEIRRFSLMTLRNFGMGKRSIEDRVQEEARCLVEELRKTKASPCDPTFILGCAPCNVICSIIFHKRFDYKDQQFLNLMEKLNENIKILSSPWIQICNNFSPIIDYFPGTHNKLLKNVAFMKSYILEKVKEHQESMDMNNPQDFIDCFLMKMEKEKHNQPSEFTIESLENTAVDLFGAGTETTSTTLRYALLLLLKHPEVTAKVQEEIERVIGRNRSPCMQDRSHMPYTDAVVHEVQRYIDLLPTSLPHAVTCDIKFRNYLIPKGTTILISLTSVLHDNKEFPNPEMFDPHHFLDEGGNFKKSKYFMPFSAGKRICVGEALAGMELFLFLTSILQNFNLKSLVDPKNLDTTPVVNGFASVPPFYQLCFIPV
Cytochrome P450 3A4, sequence (P08684 whole entry): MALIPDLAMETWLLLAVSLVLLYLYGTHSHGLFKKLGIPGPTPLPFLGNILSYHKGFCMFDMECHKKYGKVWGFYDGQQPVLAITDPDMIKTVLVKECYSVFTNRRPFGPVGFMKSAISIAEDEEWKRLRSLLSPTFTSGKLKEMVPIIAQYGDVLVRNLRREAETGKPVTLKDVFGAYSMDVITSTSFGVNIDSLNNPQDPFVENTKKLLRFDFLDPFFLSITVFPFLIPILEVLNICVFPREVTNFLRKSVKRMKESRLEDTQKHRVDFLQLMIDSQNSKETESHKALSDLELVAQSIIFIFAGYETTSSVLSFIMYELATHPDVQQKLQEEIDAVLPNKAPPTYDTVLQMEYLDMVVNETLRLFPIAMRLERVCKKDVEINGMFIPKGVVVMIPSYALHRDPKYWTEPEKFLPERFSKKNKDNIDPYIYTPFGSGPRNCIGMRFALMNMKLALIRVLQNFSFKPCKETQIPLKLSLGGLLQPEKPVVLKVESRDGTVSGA

On to `CS(=O)(=O)N(CC(=O)Nc1cccc(F)c1)c1cccc([N+](=O)[O-])c1`, for which the AC50 (as a rule, the midpoint of the concentration-response curve, whichever way the signal moves) in assay [1] was 17.8 µM (inconclusive).

As to `COc1ccc(-n2c(=O)c(-c3cccs3)nc3cnc(Oc4ccccc4)nc32)cc1`, the AC50 in [2] was 12.6 µM (inconclusive). For `O=C(Nc1ccc(OC(=O)c2cccnc2)cc1)c1cccnc1`, the AC50 in assay [1] is 12.6 µM (inconclusive).

Consider `Cc1cccc(-c2nsc(SCC(=O)N3CCCC3)n2)c1`, for which the EC50 in [3] is 0.104 µM (active); in [4], 0.217 µM (active). Take `O=C(NC1CC1)c1cccc2c1C(=O)c1ccc(N3CCC(Cc4ccccc4)CC3)cc1S2(=O)=O`: in assay [5], the EC50 was 7.05 µM (active). On to `Cc1ccc(C2=Nc3ccccc3S[C@@H](c3cccc([N+](=O)[O-])c3)C2)cc1`, for which the AC50 in assay [6] was 2 µM (inconclusive).

Consider `Cc1c(Cl)cccc1NC(=O)C(=O)NNC(=O)c1ccccc1F`, for which, in assay [7], the IC50 (usually the concentration at which inhibition is half-maximal) is 15 µM (active). With `Cc1ccc(CN2CCN(/N=C/c3ccc(Cl)c([N+](=O)[O-])c3)CC2)cc1`, the values for the EC50 in assay [8] and in assay [9] were 1.31 µM (active) and > 60 µM (not active), respectively. `COc1ccc(-n2c(=O)cnc3cnc(N4CCNCC4)nc32)cc1`: in assay [2], the AC50 was 39.8 µM (inconclusive).

`c1ccc(C2CC2)c(OCC2=NCCN2)c1` [CIRAZOLINE]: the AC50 in assay [6] is 15.8 µM (inconclusive). Consider `COc1cccc(NC(=S)N(Cc2ccc(C)cc2)Cc2ccccn2)c1`, for which the values for the EC50 in assay [8] and in assay [9] were 0.764 µM (active) and > 60 µM (not active), respectively.

As for `c1nc(NCCN2CCOCC2)c2cc(-c3ccoc3)ccc2n1`, the AC50 in assay [1] was 15.8 µM (inconclusive). Regarding `CCOc1cc(CNCCc2ccc(S(N)(=O)=O)cc2)cc(Cl)c1OCc1ccccc1`, the figures for the EC50 in assay [8] and in [9] were 0.373 µM (active) and > 60 µM (not active), respectively.

With `O=C(COc1ccc2ccccc2c1)N/N=C/c1ccccn1`, the IC50 in assay [7] is > 50 µM (active). On to `CO[C@@H]1COC(=O)C/C=C\[C@H](C)COC(=O)[C@H](Cc2ccccc2)NC(=O)C/C=C\[C@H]1C`, for which the AC50 in assay [1] was 6.31 µM (inconclusive). Regarding `Cn1c(=O)c(-c2cc(F)cc(F)c2)nc2cnc(N3CCOCC3)nc21`, the AC50 in [6] was 5.01 µM (inconclusive). Take `CCCCCCc1cc2cc(C(=O)Nc3ccccc3OC)c(=O)oc2cc1O`: the EC50 in assay [5] is 1.97 µM (active). Turning to `C=CCCCCCCCCC(=O)Nc1cnc(O)nc1O`, in [1], the AC50 is 10 µM (inconclusive). As to `COC(=O)[C@@H]1CC[C@H](C)[C@@H](c2ccc(C)cc2)N1C(=O)c1ccc(/C=N\O[C@@H](C)CN2CCCCc3nc(C)c(C)cc32)cc1`, the AC50 in assay [2] and in assay [1] was 3.16 µM (inconclusive) each time. With `Cc1nnc2ccc(-c3cccc(C(F)(F)F)c3)nn12` [CI-218872], the AC50 in assay [1] is 31.6 µM (inconclusive). `CCOC(=O)c1c(NC(=O)Cn2cnc([N+](=O)[O-])n2)sc(C)c1C`: the EC50 is 0.191 µM (active) in [8] and > 30 µM (not active) in assay [9]. Take `CCOC(=O)c1cc(CC)sc1NC(=O)C(c1ccccc1)c1ccccc1`: the AC50 in [1] is 11.2 µM (inconclusive). With `COc1ccc2nc(SCC(=O)Nc3ccc4c(c3)OCCO4)[nH]c2c1`, the AC50 in assay [1] was 6.31 µM (inconclusive). The same measure, in the same setting: with `Cc1nc2cnc(N(C)C)nc2n(C)c1=O` the figure was 15.8 µM (inconclusive). Take `COC(=O)[C@@H]1CC[C@H](C)[C@@H](c2ccc(C)cc2)N1C(=O)c1ccc(/C=N\O[C@@H]2O[C@H](COC(C)=O)[C@H](OC(C)=O)[C@H](OC(C)=O)[C@H]2OC(C)=O)cc1`: the AC50 in [2] was 1.58 µM (inconclusive). `CCN1CCc2c(sc(NC(=O)c3ccc(S(=O)(=O)N(CC)c4ccccc4)cc3)c2C(N)=O)C1`: the EC50 in assay [5] is 4.85 µM (active). In the case of `Cc1cc(C)n(-c2cc(N3CCN(C(=O)c4ccc(C(C)(C)C)cc4)CC3)ccc2[N+](=O)[O-])n1`, the AC50 in assay [1] was 35.5 µM (inconclusive). On to `C[C@@H]1C[C@H]2[C@H]3C[C@@H](F)C4=CC(=O)C=C[C@]4(C)[C@@]3(Cl)[C@@H](O)C[C@@]2(C)[C@@H]1C(=O)COC(=O)C(C)(C)C`, for which, in assay [1], the AC50 is 0.398 µM (inconclusive).

Consider `O=C1CCCN1CC(CN1CCOCC1)Sc1nnnn1-c1ccccc1` (configuration not stated), for which, in [2], the AC50 was 6.31 µM (inconclusive). With `COCCn1c(=O)c(-c2ccccc2)nc2cnc(Oc3cccc(Cl)c3)nc21`, the AC50 in assay [1] is 20 µM (inconclusive). `CC/C=C\CC[C@H](OC(=O)c1ccc(Br)cc1)C1=CCCCC1=O`: the AC50 in [2] was 3.16 µM (inconclusive); in assay [1], 3.98 µM (inconclusive).

`CN1CCN(CC(O)c2ccccc2)CC1` (configuration not stated): the EC50 in [8] is 0.934 µM (active); in [9], 31.2 µM (active). With `Cc1ccc(CSc2nnc([C@@H]3CCCN3)o2)cc1`, the AC50 was 10 µM (inconclusive) in [2] and 3.55 µM (inconclusive) in assay [1]. As for `C=C1[C@@H](O)C2C=CC[C@H](C)C(=O)[C@@](C)(O)C=C[C@@H](OC(C)=O)[C@@]23C(=O)N[C@H](Cc2ccccc2)[C@@H]3[C@@H]1C` (some centres not stated), the values for the AC50 in [2] and in assay [1] were 31.6 µM (inconclusive) and 15.8 µM (inconclusive), respectively.

`CN1CCC(NC(=O)Nc2ccc(Br)cc2)CC1`: the EC50 in assay [8] was 0.188 µM (active); in assay [9], > 60 µM (not active).

Take `COc1ccccc1CNc1ncnc2ccc(-c3ccc(N(C)C)cc3)cc12`: the AC50 in assay [2] was 0.631 µM (inconclusive). With `O=C(Nc1ccccc1)[C@@]12C[C@@H]1/C(=N/O)c1ccccc1O2`, the AC50 in assay [2] is 20 µM (inconclusive). Take `O=S(=O)(c1ccccc1)N1CCC[C@@]2(CCN(Cc3nccs3)C2)C1`: the AC50 in assay [2] was 31.6 µM (inconclusive). In the case of `COC(=O)C1CC(=O)N(c2ccc(OCc3ccccc3Cl)cc2)C1` (configuration not stated), in [7], the IC50 is 2.2 µM (active). The same measure, in the same setting: next, `Cc1ccc(C2=NN(C)c3nc4ccccc4n3C2)cc1`: 8.22 µM (active). Consider `CN1Cc2cccc3c2C(Cc2ccccc2S3)C1` (configuration not stated), for which the EC50 in assay [8] was 0.451 µM (active); in [9], > 30 µM (not active). With `Cn1c(=O)c(Oc2ccc(F)cc2)c(O)c2ccccc21`, the IC50 in assay [7] was 1.87 µM (active).

With `CC1CCN(c2cc(N3CCC(C)CC3)c([N+](=O)[O-])cc2/C=C(\C#N)c2nn(-c3ccccc3)c(N)c2C#N)CC1`, the AC50 in assay [1] is 3.98 µM (inconclusive). On to `CC(C)=CC(=O)OCC(=O)Nc1ncc(Cl)c(C)c1Cl`, for which the AC50 in [2] is 0.0631 µM (inconclusive). As to `CC(=O)c1sc2nc(-c3ccccc3)cc(C)c2c1N`, the EC50 was 0.638 µM (active) in [8] and > 60 µM (not active) in assay [9]. Turning to `Cc1ccc(C(C)C)cc1OCC(=O)Nc1ccc(N2CCCCC2)cc1`, the EC50 is 2.03 µM (active) in [8] and > 16 µM (not active) in assay [9]. Regarding `CSc1cccc(CN2CCCC(CO)(Cc3cccc(Cl)c3)C2)c1` (configuration not stated), the figures for the EC50 in assay [8] and in assay [9] were 0.514 µM (active) and > 30 µM (not active), respectively. For the molecule `COc1cc(-c2nc(-c3cc([N+](=O)[O-])ccc3C)c(-c3ccccc3)[nH]2)cc(OC)c1OC`, the EC50 in assay [8] is 0.561 µM (active); in assay [9], > 60 µM (not active). As to `O=C(N/N=C1/C[C@@H](O)[C@@H](O)[C@@H]2[C@H]3C(=O)N(c4ccc(F)cc4F)C(=O)[C@@H]3CC[C@@H]12)OCc1ccccc1`, the AC50 in [1] is 3.98 µM (inconclusive). With `Cc1ccc(NC(=O)CO/N=C/c2ccc(N(C)C)cc2)cc1`, the IC50 in assay [7] was > 50 µM (active). Consider `O=c1c2ccccc2nc(SCc2ccccc2Cl)n1Cc1ccccc1`, for which the AC50 in assay [1] was 15.8 µM (inconclusive).
